Consider 26 compounds from patent US8722717B2, “3-triazolylphenyl-substituted sulphide derivatives as acaricides and insecticides” (Bayer CropScience AG, priority 2009, dated 2014).

The test system of data set [1] is Boophilus microplus. In words: Boophilus microplus test (BOOPMI injection). The format is in vivo. To be noted: injection into the abdomen, 20 μg/animal, after 7 days. The method, then:
Solvent: Dimethyl Sulphoxide An appropriate preparation of active compound is prepared by mixing 10 mg of active compound with 0.5 ml of solvent and diluting the concentrate with solvent to the desired concentration. The solution of active compound is injected into the abdomen (Boophilus microplus) and the animals are transferred into dishes and kept in a controlled atmosphere. The activity is assessed on the basis of deposition of fertile eggs. After 7 days, the effect in % is determined. Here, 100% means that none of the ticks has laid fertile eggs.

Data set [2] relates to greenhouse red spidermite (Tetranychus urticae). Nature of the data set: Tetranychus test; OP resistant (TETRUR spray treatment), Example 5. The class given is in vivo. To be noted: foliar, 144 h, spray on bean leaf discs, after 6 days, read-out: effect (100% means that all of the mites have been killed); for pest or weed control at 100 g/ha: application rate 100 g/ha; for pest or weed control at 500 g/ha: application rate 500 g/ha. Here is the method:
(§1) Solvents: 78.0 parts by weight of acetone • • 1.5 parts by weight of dimethylformamide Emulsifier: 0.5 part by weight of alkylaryl polyglycol ether An appropriate preparation of active compound is prepared by mixing 1 part by weight of active compound with the stated amounts of solvent and emulsifier and diluting the concentrate with emulsifier-containing water to the desired concentration. Leaf discs of bean (Phaseolus vulgaris) infested by all stages of the greenhouse red spidermite (Tetranychus urticae) are sprayed with a preparation of active compound at the desired concentration. After 6 days, the effect in % is determined. Here, 100% means that all of the mites have been killed; 0% means that no mites have been killed.

Data set [3] can be described thus: log P by HPLC/LC-MS on reversed-phase C18, formic acid method [b]. The class given is physicochemical. To be noted: reversed-phase C18 HPLC column; pH 2.7, 0.1% aqueous formic acid and acetonitrile; read-out: logP (HCOOH). The method, then:
(§2) The log P values reported in the table above and in the preparation examples were determined in accordance with EEC Directive 79/831 Annex V.A8 by HPLC (High Performance Liquid Chromatography) on reversed-phase columns (C 18), with the following methods: ^[b] The determination is made by LC-MS in the acid range at pH 2.7 with 0.1% aqueous formic acid and acetonitrile (containing 0.1% formic acid) as eluents; linear gradient from 10% acetonitrile to 95% acetonitrile. Calibration took place with unbranched alkan-2-ones (having 3 to 16 carbon atoms) of known log P values (log P values determined from the retention times by linear interpolation between two successive alkanones).

For data set [4], the system named is Boophilus microplus. In words: Boophilus microplus (dip). The class given is in vivo. To be noted: application rate 100 ppm, after 7 days. The method, then:
Solvent: Dimethyl Sulphoxide A quantity of 10 mg of active compound is dissolved in 0.5 ml of dimethyl sulphoxide. To prepare a suitable formulation, the active compound solution is diluted with water to the particular desired concentration. This active compound preparation is pipetted into tubes. A quantity of 8-10 ticks is transferred into a further tube with holes. The tube is immersed in the active compound preparation, with all of the ticks being fully wetted. After the liquid has run off, the ticks are transferred to filter discs in plastic dishes and are kept in a conditioned room. The effect is monitored after 7 days on the basis of deposition of fertile eggs. Eggs whose fertility is not externally visible are stored in glass tubes until the larvae hatch, in a controlled-climate box. An activity of 100% means that none of the ticks has laid fertile eggs.

A short description of data set [5]: log P by HPLC on reversed-phase C18, phosphoric acid method [a]. To be noted: reversed-phase C18 HPLC column; pH 2.3, 0.1% aqueous phosphoric acid and acetonitrile; read-out: logP (H3PO4). The class given is physicochemical. The method, then: as §2, with “^[a]” for “^[b]”, “made” for “made by LC-MS”, “2.3” for “2.7”, “phosphoric” for “formic”, “acetonitrile” for “acetonitrile (containing 0.1% formic acid)”

Data set [6] relates to green peach aphid (Myzus persicae). Nature of the data set: Myzus test (MYZUPE spray treatment). To be noted: spray on Chinese cabbage leaf discs, application rate 500 g/ha, after 6 days. The format is in vivo. Here is the method:
as §1, with “Solvent: 78” for “Solvents: 78.0”, “Chinese cabbage (Brassica pekinensis)” for “bean (Phaseolus vulgaris)”, “green peach aphid (Myzus persicae)” for “greenhouse red spidermite (Tetranychus urticae)”, “aphids” for “mites”

Data set [7] has as its system larvae of the mustard beetle (Phaedon cochleariae). Nature of the data set: Phaedon test (PHAECO spray treatment). The class given is in vivo. To be noted: foliar, spray on Chinese cabbage leaf discs, application rate 500 g/ha, read-out: effect (100% means that all of the beetle larvae have been killed). Here is the method:
Solvents: 78.0 parts by weight of acetone • • 1.5 parts by weight of dimethylformamide Emulsifier: 0.5 part by weight of alkylaryl polyglycol ether An appropriate preparation of active compound is prepared by mixing 1 part by weight of active compound with the stated amounts of solvent and emulsifier and diluting the concentrate with emulsifier-containing water to the desired concentration. Leaf discs of Chinese cabbage (Brassica pekinensis) are sprayed with a preparation of active compound at the desired concentration and, after they have dried, are populated with larvae of the mustard beetle (Phaedon cochleariae). After the desired time, the effect in % is determined. Here, 100% means that all of the beetle larvae have been killed; 0% means that no beetle larvae have been killed.

On to `Cc1cc(C)c(-n2cnc(C(F)(F)F)n2)cc1SCC(F)F` [I-A-1, 3-(trifluoromethyl)-1-{2,4-dimethyl-5-[(2,2-difluoroethyl)sulphanyl]phenyl}-1H-1,2,4-triazole], for which, in the data set with Boophilus microplus [1], the “activity (100% means that none of the ticks has laid fertile eggs)” value was found to be 100%. The pest or weed control at 100 g/ha in data set [2] worked out at 100%. Also, in data set [3], the chromatographic logP was 3.74.
Turning to `Cc1cc(C)c([S+]([O-])CC(F)F)cc1-n1cnc(C(F)(F)F)n1` (stereo not shown) [I-A-2, 3-(trifluoromethyl)-1-{2,4-dimethyl-5-[(2,2-difluoroethyl)sulphinyl]phenyl}-1H-1,2,4-triazole], the “activity (100% means that none of the ticks has laid fertile eggs)” value in the data set with Boophilus microplus [1] is 100%. Moreover, the pest or weed control at 100 g/ha in data set [2] is 100%. Besides, the chromatographic logP in data set [3] came out at 2.41.
As to `Cc1cc(C)c(-n2cnc(C(F)(F)F)n2)cc1SCC(F)(F)C(F)F` [I-A-3], the “activity (100% means that none of the ticks has laid fertile eggs)” value with Boophilus microplus [4] amounted to 90%; with Boophilus microplus [1] it was 100%. Moreover, the pest or weed control at 500 g/ha in data set [2] worked out at 100%. Besides, the chromatographic logP in data set [5] came out at 3.98.
Take `Cc1cc(C)c(-n2cnc(C(F)(F)F)n2)cc1SCC(F)(F)C(F)(F)F` [I-A-4]: the “activity (100% means that none of the ticks has laid fertile eggs)” value in the data set with Boophilus microplus [4] worked out at 90%; in the data set with Boophilus microplus [1], 100%. The pest or weed control at 100 g/ha in data set [2] came out at 100%. Moreover, in data set [2], the pest or weed control at 500 g/ha amounted to 100%. Also, the chromatographic logP in data set [5] turned out to be 4.49.
In the case of `Cc1cc(C)c([S+]([O-])CC(F)(F)C(F)F)cc1-n1cnc(C(F)(F)F)n1` (stereo not shown) [I-A-5], in the data set with Boophilus microplus [1], the “activity (100% means that none of the ticks has laid fertile eggs)” value was determined as 100%. For the same compound, the “activity (100% means that all of the aphids have been killed)” value in data set [6] was 90%. Moreover, the pest or weed control at 500 g/ha in data set [2] was 100%. The chromatographic logP in data set [5] was 2.88.
Take `Cc1cc(F)c(-n2cnc(C(F)(F)F)n2)cc1SCC(F)F` [I-A-6]: the pest or weed control at 500 g/ha in data set [7] turned out to be 100%. In addition, in data set [2], the pest or weed control at 100 g/ha came to 100%. In data set [3], the chromatographic logP worked out at 3.57.
For the compound `Cc1cc(C)c([S+]([O-])CCC(F)(F)F)cc1-n1cnc(C(F)(F)F)n1` (stereo not shown) [I-A-7], in data set [2], the pest or weed control at 100 g/ha was determined as 90%. Further, the chromatographic logP in data set [3] was found to be 2.86.
Regarding `Cc1cc(C)c([S+]([O-])CC#N)cc1-n1cnc(C(F)(F)F)n1` (stereo not shown) [I-A-8], the pest or weed control at 500 g/ha in data set [2] was found to be 100%. Moreover, the chromatographic logP in data set [3] turned out to be 2.07.
As for `Cc1cc(C)c(-n2cnc(C(F)(F)F)n2)cc1SCC#N` [I-A-9], the pest or weed control at 100 g/ha in data set [2] came to 100%. Besides, the chromatographic logP in data set [3] is 3.08.
As to `Cc1cc(C)c([S+]([O-])CC(F)(F)C(F)(F)F)cc1-n1cnc(C(F)(F)F)n1` (stereo not shown) [I-A-10], in data set [2], the pest or weed control at 500 g/ha stood at 100%. In data set [5], the chromatographic logP stood at 3.29.
Regarding `Cc1cc(Cl)c(-n2cnc(C(F)(F)F)n2)cc1SCC#N` [I-A-12], the pest or weed control at 500 g/ha in data set [2] came out at 100%. Besides, the chromatographic logP in data set [3] came out at 3.12.
Consider `Cc1cc(F)c(-n2cnc(C(F)(F)F)n2)cc1SCC#N` [I-A-13], for which, in data set [2], the pest or weed control at 500 g/ha came to 100%. Moreover, in data set [3], the chromatographic logP was found to be 2.93.
For `Cc1cc(Cl)c(-n2cnc(C(F)(F)F)n2)cc1[S+]([O-])CC(F)(F)C(F)(F)F` (stereo not shown) [I-A-14], the pest or weed control at 500 g/ha in data set [7] and in data set [2] was 100% in each case. Besides, in data set [3], the chromatographic logP stood at 3.4.
For `Cc1cc(F)c(-n2cnc(C(F)(F)F)n2)cc1[S+]([O-])CC#N` (stereo not shown) [I-A-15], the pest or weed control at 500 g/ha in data set [2] was 100%. For the same compound, the chromatographic logP in data set [3] was determined as 1.99.
In the case of `Cc1cc(Cl)c(-n2cnc(C(F)(F)F)n2)cc1SCC(F)F` [I-A-16], the pest or weed control at 500 g/ha in data set [7] was determined as 100%. For the same compound, the pest or weed control at 100 g/ha in data set [2] came out at 100%. Besides, in data set [3], the chromatographic logP stood at 3.75.
As to `Cc1cc(Cl)c(-n2cnc(C(F)(F)F)n2)cc1SCC(F)(F)C(F)F` [I-A-17], the pest or weed control at 500 g/ha in data set [7] worked out at 100%. In addition, the pest or weed control at 100 g/ha in data set [2] is 100%. Further, in data set [3], the chromatographic logP was determined as 4.06.
For the compound `Cc1cc(F)c(-n2cnc(C(F)(F)F)n2)cc1[S+]([O-])CC(F)(F)C(F)F` (stereo not shown) [I-A-18], in data set [7], the pest or weed control at 500 g/ha turned out to be 100%. Besides, the pest or weed control at 100 g/ha in data set [2] worked out at 100%. Further, the chromatographic logP in data set [3] stood at 2.79.
In the case of `Cc1cc(F)c(-n2cnc(C(F)(F)F)n2)cc1[S+]([O-])CC(F)F` (stereo not shown) [I-A-19], the pest or weed control at 500 g/ha in data set [7] was determined as 100%. In addition, the pest or weed control at 100 g/ha in data set [2] was found to be 100%. In addition, the chromatographic logP in data set [3] stood at 2.33.
With `Cc1cc(C)c(-n2cnc(C(F)(F)F)n2)cc1SCCC(F)(F)F` [I-A-20], in data set [6], the “activity (100% means that all of the aphids have been killed)” value is on record as 100%. Also, the pest or weed control at 100 g/ha in data set [2] was determined as 100%. Also, the chromatographic logP in data set [3] came to 4.32.
Consider `Cc1cc(Cl)c(-n2cnc(C(F)(F)F)n2)cc1[S+]([O-])CC(F)F` (stereo not shown) [I-A-21], for which the pest or weed control at 500 g/ha in data set [2] was found to be 100%. In addition, the chromatographic logP in data set [3] was determined as 2.54.
In the case of `Cc1cc(F)c(-n2cnc(C(F)(F)F)n2)cc1SCC(F)(F)C(F)(F)F` [I-A-22], the pest or weed control at 100 g/ha in data set [2] was 100%. Further, the chromatographic logP in data set [3] is 4.4.
On to `Cc1cc(Cl)c(-n2cnc(C(F)(F)F)n2)cc1[S+]([O-])CC(F)(F)C(F)F` (stereo not shown) [I-A-23], for which the pest or weed control at 500 g/ha in data set [7] and in data set [2] was 100% throughout. Further, the chromatographic logP in data set [3] came out at 3.01.
As to `Cc1cc(F)c(-n2cnc(C(F)(F)F)n2)cc1SCC(F)(F)C(F)F` [I-A-24], the pest or weed control at 500 g/ha in data set [7] is 100%. In addition, the pest or weed control at 100 g/ha in data set [2] came to 100%. In data set [3], the chromatographic logP was 3.87.
In the case of `Cc1cc(F)c(-n2cnc(C(F)(F)F)n2)cc1[S+]([O-])CC(F)(F)C(F)(F)F` (stereo not shown) [I-A-25], the pest or weed control at 500 g/ha in data set [7] was found to be 100%. Also, the pest or weed control at 100 g/ha in data set [2] is 100%. In addition, the chromatographic logP in data set [3] came out at 3.22.
Consider `Cc1cc(Cl)c(-n2cnc(C(F)(F)F)n2)cc1SCC(F)(F)C(F)(F)F` [I-A-26], for which the pest or weed control at 100 g/ha in data set [2] was 90%. Also, the chromatographic logP in data set [3] was 4.57.
Consider `Cc1ccc(-n2cnc(C(F)(F)F)n2)c(C)c1` [IV-A-1, 3-(Trifluoromethyl)-1-(2,4-dimethylphenyl)-1H-1,2,4-triazole], for which the chromatographic logP in data set [3] is 3.19.
